Laboratory results from patent US9169254B2, “Spiroimidazolone derivative” (Chugai Seiyaku Kabushiki Kaisha, priority 2009, dated 2015).

Target: T1, human PTH1 receptor (Homo sapiens, UniProt Q03431)
T1 sequence (Q03431 27-593): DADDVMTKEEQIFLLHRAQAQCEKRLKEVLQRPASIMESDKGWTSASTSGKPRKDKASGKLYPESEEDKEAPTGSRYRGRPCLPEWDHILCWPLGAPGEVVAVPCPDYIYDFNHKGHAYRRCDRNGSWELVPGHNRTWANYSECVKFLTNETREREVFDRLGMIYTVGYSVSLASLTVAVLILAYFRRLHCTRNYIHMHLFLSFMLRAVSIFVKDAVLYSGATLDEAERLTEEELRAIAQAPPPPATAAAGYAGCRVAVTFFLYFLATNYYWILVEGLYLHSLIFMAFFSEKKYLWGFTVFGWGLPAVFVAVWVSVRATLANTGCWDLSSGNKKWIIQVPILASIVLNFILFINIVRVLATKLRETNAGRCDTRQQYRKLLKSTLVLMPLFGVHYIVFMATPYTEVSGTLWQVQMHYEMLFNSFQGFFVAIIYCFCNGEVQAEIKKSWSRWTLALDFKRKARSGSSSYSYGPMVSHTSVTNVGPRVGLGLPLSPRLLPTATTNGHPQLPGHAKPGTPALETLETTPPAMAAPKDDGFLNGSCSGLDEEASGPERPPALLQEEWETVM
Assay: In vitro cAMP signal activity in HKRK-B7 cells (LLC-PK1 cells overexpressing the human PTH1 receptor)
Format: cell-based
Conditions: HKRK-B7 cells; compound at 1×10^−3 M; cAMP produced as percentage of that produced by hPTH(1-34) at 100 nM

| Structure (SMILES) | cAMP production activity (%) |
| --- | --- |
| CCCCCCC(CCC)CCC1=NC2(CCN([S@TB18](=O)(=O)/C=C/c3c(C)cc(N(C)C(N)=O)cc3C)CC2)C(=O)N1 (stereo not shown) [Compound 1126, 1-(3,5-dimethyl-4-{(E)-2-[4-oxo-2-(3-propyl-nonyl)-1,3,8-triaza-spiro[4.5]dec-1-ene-8-sulfonyl]-vinyl}-phenyl)-1-methyl-urea] | 106% |
| Cc1cc(C(=O)N2CCN(C)CC2)ccc1/C=C/S(=O)(=O)N1CCC2(CC1)N=C(c1cccc(OC(F)(F)F)c1)NC2=O [Compound 527, 8-{(E)-2-[2-methyl-4-(4-methyl-piperazine-1-carbonyl)-phenyl]-ethenesulfonyl}-2-(3-trifluoromethoxy-phenyl)-1,3,8-triaza-spiro[4.5]dec-1-en-4-one] | 93% |
| Cc1cc2ccc1CCS(=O)(=O)N1CCC3(CC1)N=C(NC3=O)c1cc(cc(C(F)(F)F)c1)OCCc1cn(nn1)CCCN(C)C2=O [Compound 1442] | 9.3% |
| Cc1cc2c(ccn2C[C@@H](O)CO)c(C)c1CCS(=O)(=O)N1CCC2(CC1)N=C(C1CCC(CCC(F)(F)F)CC1)NC2=O (stereo partly drawn) [Compound 791, 8-{2-[1-((R)-2,3-dihydroxy-propyl)-4,6-dimethyl-1H-indol-5-yl]-ethanesulfonyl}-2-[4-(3,3,3-trifluoro-propyl)-cyclohexyl]-1,3,8-triaza-spiro[4.5]dec-1-en-4-one] | 6.1% |
| Cc1cc(C(=O)N2CC(O)C2)cc(C)c1/C=C/S(=O)(=O)N1CCC2(CC1)N=C(c1cccc(OC(F)(F)F)c1)NC2=O [Compound 408, 8-{(E)-2-[4-(3-hydroxy-azetidine-1-carbonyl)-2,6-dimethyl-phenyl]-ethenesulfonyl}-2-(3-trifluoromethoxy-phenyl)-1,3,8-triaza-spiro[4.5]dec-1-en-4-one] | 117% |
| CCC[C@H]1CC[C@H](C2=NC3(CCN(S(=O)(=O)c4cccc(Cl)c4)CC3)C(=O)N2)CC1 [Compound 21, 8-(3-chloro-benzenesulfonyl)-2-(4-propyl-cyclohexyl)-1,3,8-triaza-spiro[4.5]dec-1-en-4-one] | 42% |
| Cc1cc(CN(CCO)C(=O)OC(C)(C)C)ccc1CCS(=O)(=O)N1CCC2(CC1)N=C(C1CCCCC1)NC2=O [Compound 681, {4-[2-(2-Cyclohexyl-4-oxo-1,3,8-triaza-spiro[4.5]dec-1-ene-8-sulfonyl)-ethyl]-3-methyl-benzyl}-(2-hydroxy-ethyl)-carbamic acid tert-butyl ester] | 55% |
| O=C1NC(CCc2cccc3ccccc23)=NC12CCN(S(=O)(=O)c1cccc(Cl)c1)CC2 [Compound 34, 8-(3-chloro-benzenesulfonyl)-2-(2-naphthalen-1-yl-ethyl)-1,3,8-triaza-spiro[4.5]dec-1-en-4-one] | 16% |
| Cc1cc(N2CCC(=O)NC2=O)cc(C)c1/C=C/S(=O)(=O)N1CCC2(CC1)N=C(C1CCC(C)CC1)NC2=O (stereo not shown) [Compound 587, 1-(3,5-dimethyl-4-{(E)-2-[2-(4-methyl-cyclohexyl)-4-oxo-1,3,8-triaza-spiro[4.5]dec-1-ene-8-sulfonyl]-vinyl}-phenyl)-dihydro-pyrimidine-2,4-dione] | 53% |
| O=C1NC(C2(c3ccccc3)CCCCC2)=NC12CCN(S(=O)(=O)c1cccc(Cl)c1)CC2 [Compound 33, 8-(3-chloro-benzenesulfonyl)-2-(1-phenyl-cyclohexyl)-1,3,8-triaza-spiro[4.5]dec-1-en-4-one] | 4.4% |
| CCC[C@@H]1CCC[C@H](C2=NC3(CCN(S(=O)(=O)CCc4ccc(NC(C)=O)cc4C)CC3)C(=O)N2)C1 [Compound 923, N-(3-methyl-4-{2-[4-oxo-2-((1S,3R)-3-propyl-cyclohexyl)-1,3,8-triaza-spiro[4.5]dec-1-ene-8-sulfonyl]-ethyl}-phenyl)-acetamide] | 84% |
| Cc1cc(C(=O)N(C)C)ccc1CCS(=O)(=O)N1CCC2(CC1)N=C(C1CCC(C)CC1)NC2=O (stereo not shown) [Compound 76, 3,N,N-trimethyl-4-{2-[2-(4-methyl-cyclohexyl)-4-oxo-1,3,8-triaza-spiro[4.5]dec-1-ene-8-sulfonyl]-ethyl}-benzamide] | 73% |
| Cc1cc(C(=O)N2CCC(O)(CF)CC2)cc(C)c1/C=C/S(=O)(=O)N1CCC2(CC1)N=C(c1ccc3cc[nH]c3c1)NC2=O [Compound 1268, 8-{(E)-2-[4-(4-fluoromethyl-4-hydroxy-piperidine-1-carbonyl)-2,6-dimethyl-phenyl]-ethenesulfonyl}-2-(1H-indol-6-yl)-1,3,8-triaza-spiro[4.5]dec-1-en-4-one] | 33% |
| CC(=O)N(CCOCCO)c1cc(C)c(CCS(=O)(=O)N2CCC3(CC2)N=C(C2CCC(CCC(F)(F)F)CC2)NC3=O)c(C)c1 (stereo not shown) [Compound 820, N-[3,5-dimethyl-4-(2-{4-oxo-2-[4-(3,3,3-trifluoro-propyl)-cyclohexyl]-1,3,8-triaza-spiro[4.5]dec-1-ene-8-sulfonyl}-ethyl)-phenyl]-N-[2-(2-hydroxy-ethoxy)-ethyl]-acetamide] | 98% |
| Cc1cc(C(=O)N(C)C)ccc1CCS(=O)(=O)N1CCC2(CC1)N=C(c1ccc(Cl)cc1C)NC2=O [Compound 128, 4-{2-[2-(4-chloro-2-methyl-phenyl)-4-oxo-1,3,8-triaza-spiro[4.5]dec-1-ene-8-sulfonyl]-ethyl}-3,N,N-trimethyl-benzamide] | 57% |
| O=C1NC(C2CCC(CCC(F)(F)F)CC2)=NC12CCN(S(=O)(=O)CCc1cccc3c1ccn3CCOC[C@H](O)[C@@H](O)CO)CC2 (stereo partly drawn) [Compound 823, 2-[4-(3,3,3-trifluoro-propyl)-cyclohexyl]-8-(2-{1-[2-((2S,3S)-2,3,4-trihydroxy-butoxy)-ethyl]-1H-indol-4-yl}-ethanesulfonyl)-1,3,8-triaza-spiro[4.5]dec-1-en-4-one] | 103% |
| Cc1cc(NC(=O)NCC(=O)O)ccc1/C=C/S(=O)(=O)N1CCC2(CC1)N=C(C1CCC(C)CC1)NC2=O (stereo not shown) [Compound 1169, [3-(3-methyl-4-{(E)-2-[2-(4-methyl-cyclohexyl)-4-oxo-1,3,8-triaza-spiro[4.5]dec-1-ene-8-sulfonyl]-vinyl}-phenyl)-ureido]-acetic acid] | 50% |
| Cc1cc(N2C(=O)CNC2=O)ccc1CCS(=O)(=O)N1CCC2(CC1)N=C([C@H]1CCC[C@@H](C)C1)NC2=O [Compound 950, 3-(3-methyl-4-{2-[2-((1S,3R)-3-methyl-cyclohexyl)-4-oxo-1,3,8-triaza-spiro[4.5]dec-1-ene-8-sulfonyl]-ethyl}-phenyl)-imidazolidine-2,4-dione] | 59% |
| Cc1cc(N(C)C(N)=O)cc(C)c1CCS(=O)(=O)N1CCC2(CC1)N=C(C1CCC(=CCC(F)(F)F)CC1)NC2=O (stereo not shown) [Compound 939, 1-[3,5-Dimethyl-4-(2-{4-oxo-2-[4-(3,3,3-trifluoro-propylidene)-cyclohexyl]-1,3,8-triaza-spiro[4.5]dec-1-ene-8-sulfonyl}-ethyl)-phenyl]-1-methyl-urea] | 111% |
